PMC9501525, “Conjugation of a Cationic Cell-Penetrating Peptide with a Novel Kunitzin-like Trypsin Inhibitor: New Insights for Enhancement of Peptide Bioactivities” (Pharmaceutics, 2022)
Peptide text beside a SMILES is read from it.

What was measured:
[1] = system: C. albicans (ATCC 10231); type: cell-based, Candida albicans; conditions: for MIC: MHB, 5 × 10^5 CFU/mL, overnight; for MBC: clear wells spotted onto MHA
Method: (§1) The antimicrobial efficacy screening of the purified peptides was performed by MIC/MBC experiments on the following six different bacteria and an opportunistic pathogenic yeast: E. coli (ATCC 8739), Klebsiella pneumoniae (K. pneumoniae) (ATCC 43816), Pseudomonas aeruginosa (P. aeruginosa) (ATCC 9027), Staphylococcus aureus (S. aureus) (ATCC 6538), methicillin-resistant Staphylococcus aureus (MRSA) (NCTC 12493), Enterococcus faecium (E. faecium) (NCTC 12697), and Candida albicans (C. albicans) (ATCC 10231). First, frozen beads of respective cultures were inoculated into Mueller Hinton broth (MHB) medium and incubated overnight at 37 °C. Next, 500 µL of respective suspensions were added to the fresh MHB medium for incubation, and then sub-cultured until reaching the log growth phase, which was determined by measuring the absorbance of cultures at a wavelength of 550 nm. Then, the subcultures were diluted to 5 × 10^5 CFU/mL and 99 µL of suspension was removed and mixed with 1 µL of peptide solution at different concentrations (double-dilution of 12,800 to 100 µM) in a 96-well plate. The blank control, vehicle control, growth control, and the positive control groups were prepared according to the conditions mentioned previously. The peptide solutions were added to the plate and mixed with the diluted microbial suspensions. After overnight incubation, the absorbance at 550 nm of each well was measured with a Synergy HT plate reader (Biotech, Minneapolis, MN, USA). Subsequently, the samples in each clear well were spotted onto Mueller Hinton agar (MHA) plates for the MBC assays of the tested peptides.

[2] = system: S. aureus (ATCC 6538); type: cell-based, Staphylococcus aureus; conditions: for MIC: MHB, 5 × 10^5 CFU/mL, overnight, absorbance 550 nm; for MBC: clear wells spotted onto MHA
Method: as §1

[3] = system: P. aeruginosa (ATCC 9027); type: cell-based, Pseudomonas aeruginosa; conditions: for MIC: MHB, 5 × 10^5 CFU/mL, overnight; for MBC: clear wells spotted onto MHA
Method: as §1

[4] = system: MRSA (NCTC 12493); type: cell-based, methicillin-resistant Staphylococcus aureus; conditions: for MIC: MHB, 5 × 10^5 CFU/mL, overnight; for MBC: clear wells spotted onto MHA
Method: as §1

[5] = system: E. coli; assay: Salt sensitivity assay (MIC in the presence of salts); type: cell-based, Escherichia coli; conditions: for MIC in the presence of NH4Cl: MHB + 6 μM NH4Cl; for MIC in the presence of NH4Cl / MIC in the presence of KCl / MIC in the presence of NaCl / MIC in the presence of PBS: 18–20 h; for MIC in the presence of MgCl2: MHB + 1 mM MgCl2, 18–20 h; for MIC in the presence of CaCl2: MHB + 2.5 mM CaCl2, 18–20 h; for MIC in the presence of FeCl3: MHB + 4 mM FeCl3, 18–20 h; for MIC in the presence of KCl: MHB + 4.5 mM KCl; for MIC in the presence of ZnCl2: MHB + 8 mM ZnCl2, 18–20 h; for MIC in the presence of NaCl: MHB + 150 mM NaCl; for MIC in the presence of PBS: MHB, PBS (no added salt), 37 °C
Method: To determine the salt sensitivity of peptides, E. coli was used to detect the changes in MIC values of peptides under different salt conditions. The bacterial culture method used was similar to the MIC experimental method described earlier. Different concentrations of salts (150 mM NaCl, 4.5 mM KCl, 6 μM NH4Cl, 1 mM MgCl2, 1 mM MgCl2, 8 mM ZnCl2, 2.5 mM CaCl2, 4 mM FeCl3) were added to the MHB to examine the effects of each salt on the anti-E. coli activities of the peptides, as described in a previous study. Then, the bacterial dilution with salt was mixed well with peptides of different concentrations, similar to the MIC/MBC experiments, and cultured at 37 °C. After 18–20 h of incubation, the absorbance of each well was measured at 550 nm using the Synergy HT plate reader.

[6] = system: E. coli (ATCC 8739); type: cell-based, Escherichia coli; conditions: for MIC: MHB, 5 × 10^5 CFU/mL, overnight; for MBC: clear wells spotted onto MHA
Method: as §1

[7] = system: E. coli biofilm; assay: Antibiofilm assays (MBIC/MBEC, crystal violet); type: cell-based, Escherichia coli; conditions: for Effect on existing biofilms (MBEC): E. coli pre-formed biofilm, 24 h, highest experimental concentration 128 µM; for Concentration inhibiting biofilm formation (MBIC): E. coli, LB + 1% glucose, overnight 37 °C, crystal violet 595 nm, tested 1 to 128 µM
Method: To explore the ability of peptides to inhibit and eradicate the biofilm of E. coli, the minimum biofilm inhibition concentrations (MBICs) and minimum biofilm eradication concentrations (MBECs) were tested, respectively. Luria-Bertani broth (LB) medium containing 1% glucose was used to culture E. coli. The subcultured bacteria were diluted to 5 × 10^5 CFU/mL and 99 µL of this bacterial suspension was used to mix with 1 µL of peptide solution at different concentrations (double-dilution of 12,800 to 100 µM) in a 96-well plate. After overnight culture in an oscillating incubator at 37 °C and 220 rpm, the formed biofilm was washed twice with 100 µL PBS, then fixed in methanol. Next, biofilm formation was evaluated by 0.1% crystal violet staining. After dyeing for 15 min, the excess crystal violet was washed off and 30% glacial acetic acid was added to each well of a 96-well plate after drying. Then, the plate was shaken for 15 min, and the absorbance was measured at 595 nm using the Synergy HT plate reader. For the determination of MBEC, after the biofilm was formed, it was first washed twice with PBS, then the fresh medium and different concentrations of peptide (similar to MBIC experiments) were added and incubated at 37 °C at 220 rpm. The absorbance measurement was the same as previously described after 24 h of MBIC.

[8] = system: E. faecalis (NCTC 12697); type: cell-based; conditions: for MIC: MHB, 5 × 10^5 CFU/mL, overnight; for MBC: clear wells spotted onto MHA
Method: as §1

[9] = target: chymotrypsin (Bos taurus, UniProt P00766); assay: Chymotrypsin inhibition determination (fluorogenic substrate, Morrison Ki); type: biochemical; conditions: Morrison equation; substrate succinyl-Ala-Ala-Pro-Phe-AMC in PBS; Km = 17.15 μM, [S] = 42.86 μM, Et = 0.0020 μM; peptide 0.1–100 µM; nine replications in three experiments; N.I. = no inhibitory effect
Method: Phe-Pro-Arg-AMC (Bachem, Merseyside, UK) and succinyl-Ala-Ala-Pro-Phe-AMC (Bachem, Merseyside, UK) were used as substrates for trypsin and chymotrypsin inhibition determinations, respectively. Serial peptide dilutions (0.1–100 µM in phosphate buffered saline (PBS)) were incubated with 180 µL of substrate solution (50 µM in PBS) in a black 96-well plate under dark conditions for 10 min. Immediately prior to measurement, 10 µL of trypsin/chymotrypsin working solution (0.1 µM in PBS) was added to each well (final volume of 210 µL) in the plate. Subsequently, the fluorescence intensity was measured with the FLUO star OPTIMA plate reader (BMG Labtech, Ortenberg, Germany). The whole measurement process lasted for 30 min and was carried out at an emission wavelength of 460 nm and an excitation wavelength of 395 nm. The inhibition curves of trypsin and chymotrypsin were analyzed by non-linear regression using the Morrison equation in Prism 9 (Trypsin Km = 67.38 μM; Chymotrypsin Km = 17.15 μM; [S] = 42.86 μM; Et = 0.0020 μM).

Row | SMILES | MIC [1] | MBC [1] | MIC [2] | MBC [2] | MIC [3] | MBC [3] | MIC [4] | MBC [4] | MIC in the presence of NH4Cl [5] | MIC in the presence of MgCl2 [5] | MIC in the presence of CaCl2 [5] | MIC in the presence of FeCl3 [5] | MIC in the presence of KCl [5] | MIC in the presence of ZnCl2 [5] | MIC in the presence of NaCl [5] | MIC in the presence of PBS [5] | MIC [6] | MBC [6] | Concentration inhibiting biofilm formation (MBIC) [7] | MIC [8] | other results
1 | CC(C)C[C@H](NC(=O)[C@H](CCCCN)NC(=O)[C@H](C)NC(=O)[C@H](C)NC(=O)CNC(=O)CNC(=O)[C@H](CCCNC(=N)N)NC(=O)[C@H](CCCNC(=N)N)NC(=O)[C@H](CCCNC(=N)N)NC(=O)[C@H](CCC(N)=O)NC(=O)[C@H](CCCNC(=N)N)NC(=O)[C@H](CCCNC(=N)N)NC(=O)[C@H](CCCCN)NC(=O)[C@H](CCCCN)NC(=O)[C@@H](N)CCCNC(=N)N)C(=O)N1CCC[C@H]1C(=O)N[C@@H](Cc1ccccc1)C(=O)N[C@@H](CCCNC(=N)N)C(=O)N[C@H]1CSSC[C@@H](C(=O)O)NC(=O)[C@H](Cc2ccccc2)NC(=O)[C@H](C)NC(=O)[C@H](C)NC(=O)[C@H](CCCCN)NC1=O [TAT-KOV2] (HELM PEPTIDE1{R.K.K.R.R.Q.R.R.R.G.G.A.A.K.L.P.F.R.C.K.A.A.F.C}$PEPTIDE1,PEPTIDE1,19:R3-24:R3$$$V2.0) | >128 µM | >128 µM | 32 µM | 64 µM | >128 µM | >128 µM | >128 µM | >128 µM | 4 µM | 8 µM | 16 µM | 4 µM | 4 µM | 4 µM | 4 µM | 4 µM | 4 µM | 4/4 µM | 8 µM | 128 µM | Effect on existing biofilms (MBEC) [7]: > 128 µM; MBC [8]: > 128 µM; Chymotrypsin Ki [9]: N.I.
2 | CC(C)C[C@H](NC(=O)[C@H](CCCCN)NC(=O)[C@H](C)NC(=O)[C@H](C)N)C(=O)N1CCC[C@H]1C(=O)N[C@@H](Cc1ccccc1)C(=O)N[C@@H](CCCNC(=N)N)C(=O)N[C@H]1CSSC[C@@H](C(=O)O)NC(=O)[C@H](Cc2ccccc2)NC(=O)[C@H](C)NC(=O)[C@H](C)NC(=O)[C@H](CCCCN)NC1=O [Kunitzin-OV2] (HELM PEPTIDE1{A.A.K.L.P.F.R.C.K.A.A.F.C}$PEPTIDE1,PEPTIDE1,8:R3-13:R3$$$V2.0) | >128 µM | >128 µM | >128 µM | >128 µM | >128 µM | >128 µM | >128 µM | >128 µM | >128 µM | >128 µM | >128 µM | >128 µM | >128 µM | >128 µM | >128 µM | 128 µM | 128 µM | 128/128 µM | > 128 µM | >128 µM | MBC [8]: >128 µM; Chymotrypsin Ki [9]: N.I.
3 | CC(C)C[C@H](NC(=O)[C@H](CCCCN)NC(=O)[C@H](C)NC(=O)[C@H](C)N)C(=O)N1CCC[C@H]1C(=O)N[C@@H](Cc1ccccc1)C(=O)N[C@@H](CCCNC(=N)N)C(=O)N[C@H]1CSSC[C@@H](C(=O)O)NC(=O)[C@H](Cc2ccccc2)NC(=O)[C@H](C)NC(=O)[C@H](C)NC(=O)[C@H](Cc2ccccc2)NC1=O [F9-KOV2] (HELM PEPTIDE1{A.A.K.L.P.F.R.C.F.A.A.F.C}$PEPTIDE1,PEPTIDE1,8:R3-13:R3$$$V2.0) | >128 µM | >128 µM | >128 µM | >128 µM | >128 µM | >128 µM | >128 µM | >128 µM | >128 µM | >128 µM | >128 µM | >128 µM | >128 µM | >128 µM | >128 µM | >128 µM | >128 µM | >128 µM | > 128 µM | >128 µM | MBC [8]: >128 µM; Ki [9]: 2190 nM
4 | CC(C)C[C@H](NC(=O)[C@H](CCCCN)NC(=O)[C@H](C)NC(=O)[C@H](C)NC(=O)CNC(=O)CNC(=O)[C@H](CCCNC(=N)N)NC(=O)[C@H](CCCNC(=N)N)NC(=O)[C@H](CCCNC(=N)N)NC(=O)[C@H](CCC(N)=O)NC(=O)[C@H](CCCNC(=N)N)NC(=O)[C@H](CCCNC(=N)N)NC(=O)[C@H](CCCCN)NC(=O)[C@H](CCCCN)NC(=O)[C@@H](N)CCCNC(=N)N)C(=O)N1CCC[C@H]1C(=O)N[C@@H](Cc1ccccc1)C(=O)N[C@@H](CCCNC(=N)N)C(=O)N[C@H]1CSSC[C@@H](C(=O)O)NC(=O)[C@H](Cc2ccccc2)NC(=O)[C@H](C)NC(=O)[C@H](C)NC(=O)[C@H](Cc2ccccc2)NC1=O [TAT-F9-KOV2] (HELM PEPTIDE1{R.K.K.R.R.Q.R.R.R.G.G.A.A.K.L.P.F.R.C.F.A.A.F.C}$PEPTIDE1,PEPTIDE1,19:R3-24:R3$$$V2.0) | >128 µM | >128 µM | 64 µM | 128 µM | >128 µM | >128 µM | >128 µM | >128 µM | 8 µM | 16 µM | 32 µM | 8 µM | 8 µM | 8 µM | 8 µM | 8 µM | 8 µM | 8/8 µM | 16 µM | >128 µM | Effect on existing biofilms (MBEC) [7]: > 128 µM; MBC [8]: >128 µM; Ki [9]: 2230 nM
